Consider one substance from patent publication US20200115417A1, “A CYCLIC PEPTIDE AND PHARMACEUTICAL COMPOSITION COMPRISING THE SAME FOR INHIBITING PROLIFERATION OF HEV” (priority 2018, published 2020).

For data set [1], the system named is p6 HEV. Kind of data set: QRT-PCR of intracellular p6 HEV sense strand RNA. As to conditions: 10 μM CP11 every alternate day for 6 days; Huh7 cells; normalized to GAPDH. Type of data set: cell-based. On the procedure: (§1) The genomic RNAs of p6 HEV and p6 HEV-Luc were synthesized in vitro and size/integrity was monitored by formaldehyde agarose gel electrophoresis. ORF4-Huh7 cell line were prepared as reported (48) and maintained in Dulbecco's modified eagle medium containing 10% fetal calf serum, 50 IU/ml penicillin and streptomycin in 5% CO2. 200 μg/ml hygromycin was added to the cells during routine maintenance. Cells were then electroporated with genomic RNAs of p6 HEV and p6 HEV-Luc in a 4 mm cuvette at 200 Volt, 950 μF and infinite resistance. Electroporated cells were maintained in complete media for 5 days prior to the treatment with CP11.
On 6th day post-electroporation/post-infection, HEV infection model was treated every alternate day with 10 μM of CP11 for 6 days followed by measurement of cell viability, quantification of replication of the viral genome and release of the progeny viruses. […]
For measuring levels of p6 HEV sense RNA and host GAPDH RNA, cDNA was synthesized using random hexamers and Superscript III reverse transcriptase. For subsequent quantitative real time, FP of sequence “[…]” (SEQ ID NO:3) and RP of sequence “accgggacagcgtgga” (SEQ ID NO:4) were used for p6 HEV sense and FP of sequence “[…]” (SEQ ID NO:5) and RP of sequence “[…]” (SEQ ID NO:6) were used for host GAPDH RNA.

Another data set concerns ORF4 and ORF3. Briefly: In vitro His-pull down assay, ORF3-ORF4 interaction. To be noted: 1 μM in the reaction mix; western blot. Type of data set: binding, HEV. Here is the method:
(§2) pGBKT7 RdRp, TSG101 and ORF4 plasmids, in which coding sequence for RdRp, TSG101 and ORF4 is cloned under the control of the T7 promoter along with a N-terminal myc epitope tag was used for in vitro production of HEV RdRp, ORF4 and human TSG101 proteins. A coupled in vitro transcription-translation kit (TNT T7 kit) was used, following manufactures guidelines (Promega, Wis., USA). Aliquots of the TNT expressed proteins were mixed with 2× Laemelli buffer [125 mM Tris (pH 6.8), 4% SDS, 20% glycerol, 100 mM DTT and 0.02% bromophenol blue], incubated at 950 C for 5 minutes, resolved by SDS PAGE and western blotted with anti-myc antibody to confirm protein expression.
An in vitro His-pull down assay was performed to monitor whether cyclic peptide inhibits the interaction between HEV ORF3 and human TSG101 proteins. His tagged ORF3 protein was purified from E. coli BL21 (DE3) following previously described protocols (50). […]
Empty pGBKT7 vector was translated in parallel (denoted as mock lysate) to rule out non-specific cross reactivity of myc antibody with proteins present in the rabbit reticulocyte lysate. […] Two non-specific bands were detected in all samples (denoted by *). […]
In general terms: Immunoblotting shows a protein as a band on a membrane.

The test system of another data set is p6 HEV-Luc replicon. Briefly: p6 HEV-Luc replicon Gaussia luciferase assay. Type of data set: cell-based. To be noted: 10 μM CP11 for 48 hours; Huh7 cells; normalized to cell viability. On the procedure: Possible effect of CP11 on HEV replication was investigated using a Huh7 cell-based model of p6 HEV replicon expressing luciferase. Luciferase assay was done through well-known methods. Briefly, Huh7 cells were electroporated with in vitro synthesized capped genomic RNA of p6 HEV-Luc and maintained in complete media for 5 days prior to the treatment with the cyclic peptide. 6th day post electroporation, 10 μM CP11 was added for 48 hours. Gaussia luciferase activity in the culture media was measured using Renilla luciferase assay kit (Promega, Wisconsin, USA). Luciferase values were normalized to that of the cell viability assay, and plotted as mean±SEM.
A general note: A replicon is a self-replicating genome or part of one, used to study replication in cells.

Data set [2] concerns p6 HEV expressing Huh7 cells. Briefly: MTT cell viability assay. Type of data set: cell-based, human. To be noted: 10 μM CP11 every alternate day for 6 days. On the procedure: as §1
(§3) On 6th day post-electroporation/post-infection, HEV infection model was treated every alternate day with 10 μM of CP11 for 6 days followed by measurement of cell viability, quantification of replication of the viral genome and release of the progeny viruses.
Cell viability was measured by MTT [3-(4,5-dimethyl-2-thiazolyl)-2,5-diphenyl-2H-tetrazolium bromide] assay using cell titer 96 non-radioactive cell proliferation assay kit.

For data set [3], the target named is T1, HEV ORF3 and human TSG101 proteins (Homo sapiens, UniProt Q99816).
T1 construct: made in house; host or cells: ORF3-his: E. coli BL21 (DE3); TSG101-myc: coupled in vitro transcription-translation (TNT T7 kit, Promega; rabbit reticulocyte lysate) from pGBKT7 TSG101
T1 sequence (Q99816 1-390): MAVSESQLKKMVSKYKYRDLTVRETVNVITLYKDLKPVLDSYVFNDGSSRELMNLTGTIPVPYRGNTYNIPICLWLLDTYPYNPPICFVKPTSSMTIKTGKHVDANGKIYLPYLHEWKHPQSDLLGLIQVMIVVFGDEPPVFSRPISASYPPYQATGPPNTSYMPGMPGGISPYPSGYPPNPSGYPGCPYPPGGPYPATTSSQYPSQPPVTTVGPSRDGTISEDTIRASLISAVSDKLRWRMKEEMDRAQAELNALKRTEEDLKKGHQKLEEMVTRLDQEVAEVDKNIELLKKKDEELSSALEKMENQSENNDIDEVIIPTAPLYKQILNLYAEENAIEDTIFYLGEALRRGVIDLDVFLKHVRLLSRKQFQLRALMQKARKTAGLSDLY
Briefly: In vitro His-pull down assay, ORF3-TSG101 interaction. Type of data set: binding. As to conditions: for interaction between ORF3 and TSG101: western blot. Here is the method: as §2
An in vitro His-pull down assay was performed to monitor whether cyclic peptide inhibits the interaction between HEV ORF3 and human TSG101 proteins. His tagged ORF3 protein was purified from E. coli BL21 (DE3) following previously described protocols (50). Ni-NTA super flow agarose (Thermo Scientific, Massachusetts, USA) bound ORF3-his was equally aliquoted into separate 1.5 ml tubes followed by addition of TNT generated mock lysate, RdRp-myc lysate, TSG101-myc lysate, ORF4-myc lysate and CP11 (1 μM or 10 μM) in the required combinations in phosphate buffered saline (PBS; 10 mM PO43-, 137 mM NaCl, 2.7 mM KCl) supplemented with protease inhibitor cocktail. Samples were incubated on a flip flop shaker at 4° C. for 1 hour, followed by three washes in PBS. 30p1 of 2× Laemelli buffer was added to the beads and incubated at 950 C for 5 minutes. Aliquots of the eluted proteins were resolved by SDS-PAGE and western blotting was done using anti-myc and anti-ORF3 antibodies.
Empty pGBKT7 vector was translated in parallel (denoted as mock lysate) to rule out non-specific cross reactivity of myc antibody with proteins present in the rabbit reticulocyte lysate. RdRp, TSG101 and ORF4 plasmid containing samples produced bands corresponding to their expected size (FIG. 1B). Two non-specific bands were detected in all samples (denoted by *). […]

The next data set concerns g-1 HEV. Kind of data set: Release of g-1 HEV from infected ORF4-Huh7 cells. As to conditions: g-1 HEV clinical isolate, 10 μM CP11 every alternate day for 6 days. Type of data set: cell-based. Here is the method:
For infection studies, the HEV infection model was prepared by infecting 4×10^5 ORF4-Huh7 cells with 8×10^6 genome copies of the g-1 HEV clinical isolate for one hour, followed by three times washing of infected cells in PBS and maintenance in complete media for 5 days prior to treatment with CP11.
as §3
(§4) For estimation of the amount of virus released to the culture medium, medium from the above samples were collected and clarified by centrifugation at 7197×g, 4° C. for 15 minutes. 8% PEG (polyethylene glycol) 6000 and 0.4 M NaCl (final concentration) was added to the clarified samples and the mixture was incubated at 0° C. for 16 hours, followed by centrifugation at 20,000×g for 30 minutes. The pellet was resuspended in PBS and RNA was isolated using QIAamp Viral RNA Mini kit. Intracellular RNA was isolated using TRI reagent (MRC, Ohio, USA), following manufactures protocol.

In data set [4] the test system is p6 HEV. Briefly: ELISA of viral capsid protein ORF2 in viruses released to culture medium. Type of data set: cell-based. To be noted: 10 μM CP11 treated samples; Huh7 cells. Here is the method:
as §4
An ELISA was standardized using purified recombinant ORF2 protein (112-608aa region) as the antigen and a rabbit polyclonal anti-ORF2 antibody, which was earlier generated and characterized in our laboratory (48). Specificity of the assay was monitored by including appropriate controls such as rabbit preimmune serum and competition with the peptide, which was used to generate the antibody. […]
For ELISA mediated quantification of p6 HEV present in the culture medium, PEG 6000 precipitated virus was resuspended in PBS and coated onto the ELISA plate overnight at 4° C. […]
(In general: An ELISA detects its analyte on a solid surface through an enzyme-linked reagent.)

Entries after “also recorded” stand apart in the source; their conditions may differ. Where no end group is shown, it is not given here.

For “CP11: Peptide 11 (CGWIYWNV; SEQ ID NO:1), cyclized and conjugated with the linear Tat peptide (CGRKKRRQRRRPPQ; SEQ ID NO:2) (also: peptide 11 cyclized, mode not given here, conjugated to linear Tat peptide, linkage not given here)”, in the data set on p6 HEV [1], the “viral sense strand RNA level in cells” value is “significant increase”. In the data set with ORF4 and ORF3, the “interaction between ORF4 and ORF3” value is listed as “remains unaffected”. Besides, the “luciferase activity (viral replication/RNA stability)” value with p6 HEV-Luc replicon is “no effect”. In addition, the “cytotoxic effect (cell viability, MTT)” value in data set [2] was “ruled out the possible cytotoxic effect; also recorded: without showing any cytotoxicity”. For the same substance, the “interaction between ORF3 and TSG101” value in data set [3] (1 μM in the reaction mix) is on record as “significantly reduced”; in data set [3] (10 μM of CP11 in the reaction mixture) it was “completely inhibited”. In data set [3] (out of several cyclic peptides screened), the “inhibition of the interaction between ORF3 and TSG101 proteins, compared with other peptides” value is “most efficiently”. In addition, the “block of release of g-1 HEV” value in the data set with g-1 HEV is “approximately 90%”. For the same substance, in the data set with p6 HEV [4], the “ORF2 level in PEG 6000 precipitated virus from culture medium” value is “significantly less”.
